# Assay results published in ChEMBL document CHEMBL1201862, “PubChem BioAssay data set” (2004).
# The source made the active and inactive calls.
# What was measured:
# [1] = molecular target: T1, Tyrosine-protein phosphatase non-receptor type 22 (Homo sapiens, UniProt Q9Y2R2); experiment: SAR LYP1 Fluorescent Assay using OMFP substrate for In Vitro dose response studies - Set 3. [Related pubchem assays (depositor defined):AID1779, AID1784, AID2140, AID2686]; assay type: functional
# T1 sequence (Q9Y2R2 whole entry): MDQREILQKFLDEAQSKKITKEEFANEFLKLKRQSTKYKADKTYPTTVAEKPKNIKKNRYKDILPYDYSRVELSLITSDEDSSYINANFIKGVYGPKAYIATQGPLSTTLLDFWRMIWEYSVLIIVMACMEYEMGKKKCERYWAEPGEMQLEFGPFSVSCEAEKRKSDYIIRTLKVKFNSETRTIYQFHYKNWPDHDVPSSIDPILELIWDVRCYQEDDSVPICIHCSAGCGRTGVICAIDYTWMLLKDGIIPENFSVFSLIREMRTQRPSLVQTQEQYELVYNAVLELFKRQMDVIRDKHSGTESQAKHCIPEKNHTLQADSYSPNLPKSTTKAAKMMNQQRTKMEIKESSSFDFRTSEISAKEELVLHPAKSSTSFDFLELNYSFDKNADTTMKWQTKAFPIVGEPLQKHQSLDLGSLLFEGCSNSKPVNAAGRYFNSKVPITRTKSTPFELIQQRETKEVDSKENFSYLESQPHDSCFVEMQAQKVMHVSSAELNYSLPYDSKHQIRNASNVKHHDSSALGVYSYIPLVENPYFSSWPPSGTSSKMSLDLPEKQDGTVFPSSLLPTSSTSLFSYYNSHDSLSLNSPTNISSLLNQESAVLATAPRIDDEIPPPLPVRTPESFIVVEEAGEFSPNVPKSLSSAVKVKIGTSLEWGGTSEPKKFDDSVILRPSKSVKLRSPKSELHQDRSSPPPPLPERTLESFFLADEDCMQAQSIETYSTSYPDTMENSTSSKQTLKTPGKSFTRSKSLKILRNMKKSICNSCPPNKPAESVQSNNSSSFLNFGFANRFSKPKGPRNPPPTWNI
# [2] = molecular target: T2, G-protein coupled receptor 35 (Homo sapiens, UniProt Q9HC97); experiment: SAR Analysis for the identification of Selective Antagonists of ERK1/2 Activity in GPR35-Overexpressing U2OS Cells. [Related pubchem assays: 2079, 2058 ]; assay type: functional, cell-based
# T2 sequence (Q9HC97 whole entry): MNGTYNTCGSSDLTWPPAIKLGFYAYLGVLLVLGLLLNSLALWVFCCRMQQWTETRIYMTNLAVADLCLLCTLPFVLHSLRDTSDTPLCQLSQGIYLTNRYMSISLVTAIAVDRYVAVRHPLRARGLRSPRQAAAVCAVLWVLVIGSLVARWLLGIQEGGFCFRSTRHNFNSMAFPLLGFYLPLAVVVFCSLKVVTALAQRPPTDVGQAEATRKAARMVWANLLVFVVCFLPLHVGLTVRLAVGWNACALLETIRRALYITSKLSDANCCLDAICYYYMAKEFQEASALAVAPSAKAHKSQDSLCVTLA
# [3] = molecular target: T1, Tyrosine-protein phosphatase non-receptor type 22; experiment: inhibition of lymphoid tyrosine phosphatase LYP – biochemical, pCAP fluorogenic substrate, fluorescence, set 3, SAR follow-up (AID 449727); assay type: functional
# [4] = molecular target: T2, G-protein coupled receptor 35; experiment: inhibition of zaprinast-stimulated GPR35 beta-arrestin translocation – imaging, U2OS, beta-arrestin-GFP, zaprinast agonist, primary screen (AID 2058); assay type: functional;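 note: antagonist potency meaning inhibition of agonist-induced arrestin redistribution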
# [5] = molecular target: G-protein coupled receptor 55 (Homo sapiens, UniProt Q9Y2T6); experiment: blockers of GPR55 signalling, imaged – imaging, image-based, counter-screen for GPR35 antagonist project, SAR follow-up (AID 2397); assay type: functional
# Sequence of G-protein coupled receptor 55 (Q9Y2T6 whole entry): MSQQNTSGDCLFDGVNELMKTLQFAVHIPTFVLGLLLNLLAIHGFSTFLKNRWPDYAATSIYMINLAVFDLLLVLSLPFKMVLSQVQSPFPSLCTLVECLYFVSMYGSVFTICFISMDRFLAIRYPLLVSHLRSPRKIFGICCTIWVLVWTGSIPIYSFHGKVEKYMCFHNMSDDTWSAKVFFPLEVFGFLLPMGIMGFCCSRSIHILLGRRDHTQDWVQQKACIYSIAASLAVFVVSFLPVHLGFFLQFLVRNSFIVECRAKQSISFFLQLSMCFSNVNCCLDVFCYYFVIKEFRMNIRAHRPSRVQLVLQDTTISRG
# [6] = molecular target: T3, Tyrosine-protein phosphatase non-receptor type 7 (Homo sapiens, UniProt P35236); experiment: inhibition of hematopoietic tyrosine phosphatase HePTP – biochemical, set 2, SAR follow-up (AID 449736); assay type: functional
# T3 sequence (P35236 whole entry): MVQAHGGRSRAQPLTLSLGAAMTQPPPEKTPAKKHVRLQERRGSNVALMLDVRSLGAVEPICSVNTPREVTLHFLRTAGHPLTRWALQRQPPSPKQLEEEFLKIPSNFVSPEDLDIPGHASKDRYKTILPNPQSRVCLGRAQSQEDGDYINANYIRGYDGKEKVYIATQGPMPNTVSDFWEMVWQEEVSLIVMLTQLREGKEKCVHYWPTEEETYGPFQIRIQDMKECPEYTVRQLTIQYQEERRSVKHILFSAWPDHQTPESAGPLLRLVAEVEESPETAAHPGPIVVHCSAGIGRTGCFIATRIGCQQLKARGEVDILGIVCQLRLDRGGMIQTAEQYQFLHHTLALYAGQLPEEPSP
# [7] = molecular target: Tyrosine-protein phosphatase non-receptor type 12 (Homo sapiens, UniProt Q05209); experiment: SAR Selectivity Analysis of small molecule inhibitors of PEST using pCAP in a fluorescence assay. [Related pubchem assays (depositor defined):AID1779, AID1784, AID2135]; assay type: functional
# [8] = molecular target: T4, C-C chemokine receptor type 6 (Homo sapiens, UniProt P51684); experiment: antagonism of CCR6 beta-arrestin recruitment – cell-based, luminescent beta-arrestin readout, dose response (AID 504728); assay type: functional
# T4 sequence (P51684 whole entry): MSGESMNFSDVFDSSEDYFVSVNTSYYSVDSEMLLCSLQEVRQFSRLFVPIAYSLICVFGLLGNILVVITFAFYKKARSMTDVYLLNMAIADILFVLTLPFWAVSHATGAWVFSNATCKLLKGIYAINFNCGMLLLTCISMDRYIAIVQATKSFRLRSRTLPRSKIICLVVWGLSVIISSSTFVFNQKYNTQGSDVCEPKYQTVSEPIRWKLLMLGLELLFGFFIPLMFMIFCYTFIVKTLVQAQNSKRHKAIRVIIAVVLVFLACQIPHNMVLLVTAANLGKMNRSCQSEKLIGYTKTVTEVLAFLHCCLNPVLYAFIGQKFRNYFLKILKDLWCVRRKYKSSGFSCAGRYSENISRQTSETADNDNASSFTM
# Beta-galactosidase = Beta-galactosidase (Escherichia coli, UniProt Q8VNN2); experiment: detection-enzyme interference by beta-gal modulators – biochemical, E. coli enzyme, set 3, artefact control for CCR6 antagonist project, dose response (AID 504712); assay type: functional
# Sequence of Beta-galactosidase (Q8VNN2 whole entry): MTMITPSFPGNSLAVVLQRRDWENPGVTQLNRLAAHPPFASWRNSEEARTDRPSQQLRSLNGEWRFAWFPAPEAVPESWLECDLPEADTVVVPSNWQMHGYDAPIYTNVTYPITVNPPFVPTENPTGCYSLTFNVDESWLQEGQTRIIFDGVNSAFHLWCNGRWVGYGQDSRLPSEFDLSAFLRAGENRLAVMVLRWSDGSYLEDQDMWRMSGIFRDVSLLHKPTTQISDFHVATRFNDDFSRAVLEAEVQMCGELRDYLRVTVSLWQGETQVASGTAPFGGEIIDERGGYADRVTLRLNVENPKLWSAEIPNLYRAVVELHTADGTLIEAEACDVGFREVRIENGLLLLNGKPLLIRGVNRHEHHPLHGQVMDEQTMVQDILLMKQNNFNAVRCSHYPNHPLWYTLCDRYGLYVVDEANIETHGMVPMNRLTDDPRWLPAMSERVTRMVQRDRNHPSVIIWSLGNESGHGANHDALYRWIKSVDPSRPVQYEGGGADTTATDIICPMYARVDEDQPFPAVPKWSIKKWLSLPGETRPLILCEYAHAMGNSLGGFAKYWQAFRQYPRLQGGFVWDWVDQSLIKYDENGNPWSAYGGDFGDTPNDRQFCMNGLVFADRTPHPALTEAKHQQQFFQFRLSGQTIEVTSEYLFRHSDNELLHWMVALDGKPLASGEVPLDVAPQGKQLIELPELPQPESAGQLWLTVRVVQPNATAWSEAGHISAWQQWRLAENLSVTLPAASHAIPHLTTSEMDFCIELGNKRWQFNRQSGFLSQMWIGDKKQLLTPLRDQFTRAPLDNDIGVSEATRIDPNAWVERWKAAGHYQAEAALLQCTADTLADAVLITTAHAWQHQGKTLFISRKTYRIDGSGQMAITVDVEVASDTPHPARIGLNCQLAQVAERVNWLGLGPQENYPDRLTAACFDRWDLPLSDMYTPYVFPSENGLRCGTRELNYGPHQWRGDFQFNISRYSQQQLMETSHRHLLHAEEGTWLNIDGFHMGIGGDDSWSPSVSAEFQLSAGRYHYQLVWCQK
# SUMO-activating enzyme [9] = molecular target: T5, SUMO-activating enzyme (Homo sapiens, UniProt Q9UBT2); experiment: blockers of SAE1/SAE2–UBC9 SUMO transfer – biochemical, HTRF, uHTS, primary screen (AID 2006); assay type: protein-complex assay
# T5 sequence (Q9UBE0 whole entry): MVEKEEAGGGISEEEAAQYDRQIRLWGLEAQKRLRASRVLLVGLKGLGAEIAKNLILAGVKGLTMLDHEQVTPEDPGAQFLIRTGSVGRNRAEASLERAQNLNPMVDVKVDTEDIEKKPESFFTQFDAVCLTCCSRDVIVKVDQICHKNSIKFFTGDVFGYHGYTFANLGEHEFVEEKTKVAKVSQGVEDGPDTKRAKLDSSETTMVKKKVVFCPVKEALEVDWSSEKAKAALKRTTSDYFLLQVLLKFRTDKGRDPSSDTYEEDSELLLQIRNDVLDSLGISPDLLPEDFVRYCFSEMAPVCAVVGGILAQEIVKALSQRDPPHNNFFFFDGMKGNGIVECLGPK
# T5 sequence (Q9UBT2 whole entry): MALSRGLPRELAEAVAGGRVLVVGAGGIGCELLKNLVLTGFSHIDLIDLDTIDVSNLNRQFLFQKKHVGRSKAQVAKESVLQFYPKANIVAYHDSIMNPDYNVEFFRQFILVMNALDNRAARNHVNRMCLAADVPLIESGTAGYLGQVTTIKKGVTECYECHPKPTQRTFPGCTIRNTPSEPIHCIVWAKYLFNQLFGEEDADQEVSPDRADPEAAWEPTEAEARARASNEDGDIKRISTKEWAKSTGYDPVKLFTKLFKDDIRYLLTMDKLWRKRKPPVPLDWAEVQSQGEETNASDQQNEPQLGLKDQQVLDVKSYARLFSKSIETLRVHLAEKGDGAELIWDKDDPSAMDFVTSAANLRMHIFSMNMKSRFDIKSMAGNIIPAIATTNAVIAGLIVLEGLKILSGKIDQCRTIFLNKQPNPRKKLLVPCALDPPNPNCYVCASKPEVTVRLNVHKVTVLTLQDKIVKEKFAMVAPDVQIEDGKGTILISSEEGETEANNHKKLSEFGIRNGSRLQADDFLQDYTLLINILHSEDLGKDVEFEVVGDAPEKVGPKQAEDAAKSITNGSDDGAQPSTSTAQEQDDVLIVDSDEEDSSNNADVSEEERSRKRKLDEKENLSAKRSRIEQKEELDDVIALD
# SUMO-activating enzyme [10] = molecular target: T5, SUMO-activating enzyme; experiment: blockers of UBC9-mediated SUMO conjugation – biochemical, AlphaScreen, SUMOylation inhibitor project, confirmation (AID 2018); assay type: functional
# [11] = molecular target: Peroxisome proliferator-activated receptor gamma/Nuclear receptor coactivator 1 (Homo sapiens, UniProt P37231); experiment: TR-FRET dose response biochemical High Throughput Screening assay for agonists of the steroid receptor coactivator 1 (SRC-1) recruitment by the peroxisome proliferator-activated receptor gamma (PPAR gamma): non-selective agonists. [Related pubchem assays (depositor defined):AID1300, AID1808, AID504735, AID631]; assay type: protein assay
# Sequence of Peroxisome proliferator-activated receptor gamma/Nuclear receptor coactivator 1 (P37231 whole entry): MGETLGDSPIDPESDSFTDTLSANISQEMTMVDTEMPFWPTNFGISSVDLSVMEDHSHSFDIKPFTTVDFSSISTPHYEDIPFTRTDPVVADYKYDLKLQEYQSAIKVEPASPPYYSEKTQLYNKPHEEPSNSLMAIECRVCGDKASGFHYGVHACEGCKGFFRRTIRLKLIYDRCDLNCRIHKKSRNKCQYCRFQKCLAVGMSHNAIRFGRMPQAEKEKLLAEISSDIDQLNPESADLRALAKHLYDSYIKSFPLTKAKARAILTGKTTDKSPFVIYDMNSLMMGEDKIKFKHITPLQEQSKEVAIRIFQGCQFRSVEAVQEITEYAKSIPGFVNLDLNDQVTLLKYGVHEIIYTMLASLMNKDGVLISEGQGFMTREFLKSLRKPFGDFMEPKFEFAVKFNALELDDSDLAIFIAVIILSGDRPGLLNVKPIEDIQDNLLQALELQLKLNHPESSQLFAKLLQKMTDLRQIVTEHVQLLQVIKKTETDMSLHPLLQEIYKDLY
# Sequence of Peroxisome proliferator-activated receptor gamma/Nuclear receptor coactivator 1 (Q15788 whole entry, further chain): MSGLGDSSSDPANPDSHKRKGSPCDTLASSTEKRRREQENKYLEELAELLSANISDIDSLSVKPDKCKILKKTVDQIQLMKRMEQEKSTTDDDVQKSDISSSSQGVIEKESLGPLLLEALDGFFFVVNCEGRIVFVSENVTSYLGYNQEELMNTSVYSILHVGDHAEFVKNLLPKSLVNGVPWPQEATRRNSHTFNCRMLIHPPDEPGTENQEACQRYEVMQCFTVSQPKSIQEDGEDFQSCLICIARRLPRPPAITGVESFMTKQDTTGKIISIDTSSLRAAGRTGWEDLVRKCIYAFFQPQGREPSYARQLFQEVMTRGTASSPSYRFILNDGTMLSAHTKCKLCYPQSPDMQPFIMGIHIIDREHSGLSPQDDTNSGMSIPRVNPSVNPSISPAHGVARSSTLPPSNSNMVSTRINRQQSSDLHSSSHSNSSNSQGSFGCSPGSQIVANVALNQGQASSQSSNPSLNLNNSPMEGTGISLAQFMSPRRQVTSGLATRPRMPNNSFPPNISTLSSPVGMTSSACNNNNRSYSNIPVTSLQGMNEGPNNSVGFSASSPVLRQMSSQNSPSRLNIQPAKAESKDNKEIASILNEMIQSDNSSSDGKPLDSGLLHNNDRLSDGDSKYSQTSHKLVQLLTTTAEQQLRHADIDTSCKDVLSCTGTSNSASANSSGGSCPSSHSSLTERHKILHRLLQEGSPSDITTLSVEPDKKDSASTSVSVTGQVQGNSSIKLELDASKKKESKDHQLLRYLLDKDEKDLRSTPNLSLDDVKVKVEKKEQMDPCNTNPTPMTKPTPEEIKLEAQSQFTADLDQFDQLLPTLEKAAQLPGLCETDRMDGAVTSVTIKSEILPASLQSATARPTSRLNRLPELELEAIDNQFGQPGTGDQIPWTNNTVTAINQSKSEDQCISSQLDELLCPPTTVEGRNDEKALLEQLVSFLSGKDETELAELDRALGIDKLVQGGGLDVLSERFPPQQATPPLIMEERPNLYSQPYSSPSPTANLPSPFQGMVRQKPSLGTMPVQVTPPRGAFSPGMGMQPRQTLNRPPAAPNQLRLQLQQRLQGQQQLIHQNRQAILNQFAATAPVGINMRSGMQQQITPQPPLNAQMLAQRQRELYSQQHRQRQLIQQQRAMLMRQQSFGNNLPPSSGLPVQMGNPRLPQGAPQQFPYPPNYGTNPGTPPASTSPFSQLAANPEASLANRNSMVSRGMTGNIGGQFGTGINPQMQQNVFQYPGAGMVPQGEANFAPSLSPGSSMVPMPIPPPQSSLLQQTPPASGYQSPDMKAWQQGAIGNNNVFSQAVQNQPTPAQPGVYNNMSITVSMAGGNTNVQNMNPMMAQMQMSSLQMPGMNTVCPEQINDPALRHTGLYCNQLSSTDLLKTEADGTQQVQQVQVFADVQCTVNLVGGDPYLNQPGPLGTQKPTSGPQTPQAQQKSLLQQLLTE
# H9c2 = experiment: cells; assay type: functional, cell-based; conditions: Rattus norvegicus, H9c2, Myocardium;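 note: confirmatory concentration-response retest of ultra-high-throughput screening hits for modulation of myocardial damage; cell death induced by hydrogen peroxide oxidative stress; compound pretreatment for 60 min then peroxide exposure for 2 h; potency is for protecting the cells against peroxide damage rather than for killing them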
# [12] = molecular target: Peroxisome proliferator-activated receptor gamma/Nuclear receptor coactivator 2 (Homo sapiens, UniProt P37231); experiment: (§1) TR-FRET dose response biochemical High Throughput Screening assay for agonists of the steroid receptor coactivator 2 (SRC-2) recruitment by the peroxisome proliferator-activated receptor gamma (PPAR gamma): non-selective agonists. [Related pubchem assays: 1297, 1032 ]; assay type: functional
# [13] = molecular target: Peroxisome proliferator-activated receptor gamma/Nuclear receptor coactivator 3 (Homo sapiens, UniProt P37231); experiment: as §1, with “3 (SRC-3)” for “2 (SRC-2)”, “1301 (Confirmation screen.), 1048 (Primary screen.)]” for “1297, 1032 ]”; assay type: functional
smiles,measurement,setting,value
COc1cccc(/C=C2\SC(=S)N(CCCC(=O)Nc3ccc(C(=O)O)cc3)C2=O)c1,IC50,[1],> 100 µM (inactive)
same,IC50,[2],0.691 µM (active)
same,IC50,[3],> 100 µM (inactive)
same,IC50,[4],< 0.5 µM (active)
same,IC50,[5],> 32 µM (inactive)
same,IC50,[6],8.56 µM (active)
same,IC50,[7],32.3 µM (active)
N#C/C(=C\c1ccc(-c2ccc([N+](=O)[O-])cc2)o1)C(=O)Nc1nc(-c2cccs2)cs1,IC50,[8],> 66.6 µM (inactive)
same,IC50,Beta-galactosidase,> 66.6 µM (inactive)
same,IC50,SUMO-activating enzyme [9],8.52 µM (active)
same,IC50,SUMO-activating enzyme [10],18.2 µM (active)
O=C(Nc1cccnc1)c1sc(Nc2ccccc2)nc1-c1ccccc1,EC50,[11],2.72 µM (active)
same,IC50,H9c2,> 79 µM (inactive)
same,EC50,[12],3.26 µM (active)
same,EC50,[13],40 µM (not active)
